What was measured:
Assay in all cases: biochemical
Parameters in all cases: in vitro kinase selectivity panel, protein and lipid kinases, single concentration, ATP at Km
Conditions in all cases: ATP at Km
[1] = target: T1, TrkB(h) (Homo sapiens, UniProt Q16620)
T1 construct: gene NTRK2
How it was run: (§1)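 Single-point screen against a protein and lipid kinase panel: inhibitor at 1 μM. ATP concentration for every kinase equivalent to its Km.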

[2] = target: EphA7(h) (Homo sapiens, UniProt Q15375)
How it was run: as §1

[3] = target: CDK2/cyclinA(h) (Homo sapiens, UniProt P24941)
How it was run: as §1

[4] = target: JAK2(h) (Homo sapiens, UniProt O60674)
How it was run: as §1

[5] = target: Flt3(D835Y)(h) (Homo sapiens, UniProt P36888, D835Y)
How it was run: as §1

[6] = target: T2, CaMKIV(h) (Homo sapiens, UniProt Q16566)
T2 construct: gene CAMK4
How it was run: as §1

[7] = target: T3, Rsk1(h) (Homo sapiens, UniProt Q15418)
T3 construct: gene RPS6KA1
How it was run: as §1

[8] = target: T4, PKBα(h) (Homo sapiens, UniProt P31749)
T4 construct: gene AKT1
How it was run: as §1

[9] = target: FGFR4(h) (Homo sapiens, UniProt P22455)
How it was run: as §1

[10] = target: T5, Fms(h) (Homo sapiens, UniProt P07333)
T5 construct: gene CSF1R
How it was run: as §1

[11] = target: T6, PKCθ(h) (Homo sapiens, UniProt Q04759)
T6 construct: gene PRKCQ
How it was run: as §1

[12] = target: PIK3CB (Homo sapiens, UniProt P42338)
How it was run: as §1

[13] = target: Flt4(h) (Homo sapiens, UniProt P35916)
How it was run: as §1

[14] = target: KDR(h) (Homo sapiens, UniProt P35968)
How it was run: as §1

[15] = target: T7, AMPKα1(h) (Homo sapiens, UniProt Q13131)
T7 construct: gene PRKAA1
How it was run: as §1

[16] = target: T8, ROCK-II(h) (Homo sapiens, UniProt O75116)
T8 construct: gene ROCK2
How it was run: as §1

[17] = target: T9, cSRC(h) (Homo sapiens, UniProt P12931)
T9 construct: gene SRC
How it was run: as §1

[18] = target: T10, CK2(h) (Homo sapiens, UniProt P68400)
T10 construct: gene CSNK2A1
How it was run: as §1

Chain of EphA7(h) (Q15375 whole entry): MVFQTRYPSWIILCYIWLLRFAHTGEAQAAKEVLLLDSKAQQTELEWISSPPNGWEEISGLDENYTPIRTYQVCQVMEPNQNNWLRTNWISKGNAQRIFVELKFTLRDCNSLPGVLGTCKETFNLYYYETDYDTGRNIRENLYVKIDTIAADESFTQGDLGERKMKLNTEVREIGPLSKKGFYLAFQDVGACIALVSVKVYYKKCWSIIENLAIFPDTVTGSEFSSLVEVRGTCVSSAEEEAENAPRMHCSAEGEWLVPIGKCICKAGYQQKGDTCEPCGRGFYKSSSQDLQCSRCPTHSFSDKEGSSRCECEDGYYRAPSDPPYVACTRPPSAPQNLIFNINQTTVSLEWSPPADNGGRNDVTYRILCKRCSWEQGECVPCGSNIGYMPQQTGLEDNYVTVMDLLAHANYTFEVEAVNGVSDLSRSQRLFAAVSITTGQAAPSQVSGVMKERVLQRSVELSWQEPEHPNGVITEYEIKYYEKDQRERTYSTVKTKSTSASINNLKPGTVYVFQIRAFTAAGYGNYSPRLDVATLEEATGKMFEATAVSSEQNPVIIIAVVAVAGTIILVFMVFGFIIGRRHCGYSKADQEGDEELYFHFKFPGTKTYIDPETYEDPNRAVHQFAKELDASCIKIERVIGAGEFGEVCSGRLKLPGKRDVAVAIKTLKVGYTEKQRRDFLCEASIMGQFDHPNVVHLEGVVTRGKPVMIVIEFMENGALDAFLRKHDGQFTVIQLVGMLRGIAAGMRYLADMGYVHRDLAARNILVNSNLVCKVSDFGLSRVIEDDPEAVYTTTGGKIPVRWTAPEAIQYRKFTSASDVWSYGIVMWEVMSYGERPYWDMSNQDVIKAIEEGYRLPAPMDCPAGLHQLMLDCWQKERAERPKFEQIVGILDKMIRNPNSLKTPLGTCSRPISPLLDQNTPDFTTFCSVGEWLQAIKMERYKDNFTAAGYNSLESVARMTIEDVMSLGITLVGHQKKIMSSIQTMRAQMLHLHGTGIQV
Chain of FGFR4(h) (P22455 whole entry): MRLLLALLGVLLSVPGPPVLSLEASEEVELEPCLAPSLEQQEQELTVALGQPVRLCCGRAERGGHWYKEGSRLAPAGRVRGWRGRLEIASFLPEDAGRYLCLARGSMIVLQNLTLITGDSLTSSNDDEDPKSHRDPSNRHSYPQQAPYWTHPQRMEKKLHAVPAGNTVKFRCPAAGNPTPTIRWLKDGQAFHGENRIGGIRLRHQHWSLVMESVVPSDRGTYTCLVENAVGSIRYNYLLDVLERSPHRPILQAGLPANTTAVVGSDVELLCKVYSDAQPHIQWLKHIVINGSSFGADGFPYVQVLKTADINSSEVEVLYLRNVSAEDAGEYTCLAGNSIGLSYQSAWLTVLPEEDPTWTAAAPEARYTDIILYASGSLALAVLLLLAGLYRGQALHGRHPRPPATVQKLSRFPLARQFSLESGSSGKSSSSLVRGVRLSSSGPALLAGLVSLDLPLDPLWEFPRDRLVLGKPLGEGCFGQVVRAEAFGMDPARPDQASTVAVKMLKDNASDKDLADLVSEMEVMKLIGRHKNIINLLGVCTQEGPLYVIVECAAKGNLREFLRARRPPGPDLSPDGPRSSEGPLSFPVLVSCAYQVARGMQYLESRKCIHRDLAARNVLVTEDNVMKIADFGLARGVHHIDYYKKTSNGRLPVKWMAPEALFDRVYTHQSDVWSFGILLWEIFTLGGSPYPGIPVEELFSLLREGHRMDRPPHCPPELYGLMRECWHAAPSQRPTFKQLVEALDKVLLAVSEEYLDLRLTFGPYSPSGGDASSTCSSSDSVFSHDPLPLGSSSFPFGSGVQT
T3 sequence (Q15418 whole entry): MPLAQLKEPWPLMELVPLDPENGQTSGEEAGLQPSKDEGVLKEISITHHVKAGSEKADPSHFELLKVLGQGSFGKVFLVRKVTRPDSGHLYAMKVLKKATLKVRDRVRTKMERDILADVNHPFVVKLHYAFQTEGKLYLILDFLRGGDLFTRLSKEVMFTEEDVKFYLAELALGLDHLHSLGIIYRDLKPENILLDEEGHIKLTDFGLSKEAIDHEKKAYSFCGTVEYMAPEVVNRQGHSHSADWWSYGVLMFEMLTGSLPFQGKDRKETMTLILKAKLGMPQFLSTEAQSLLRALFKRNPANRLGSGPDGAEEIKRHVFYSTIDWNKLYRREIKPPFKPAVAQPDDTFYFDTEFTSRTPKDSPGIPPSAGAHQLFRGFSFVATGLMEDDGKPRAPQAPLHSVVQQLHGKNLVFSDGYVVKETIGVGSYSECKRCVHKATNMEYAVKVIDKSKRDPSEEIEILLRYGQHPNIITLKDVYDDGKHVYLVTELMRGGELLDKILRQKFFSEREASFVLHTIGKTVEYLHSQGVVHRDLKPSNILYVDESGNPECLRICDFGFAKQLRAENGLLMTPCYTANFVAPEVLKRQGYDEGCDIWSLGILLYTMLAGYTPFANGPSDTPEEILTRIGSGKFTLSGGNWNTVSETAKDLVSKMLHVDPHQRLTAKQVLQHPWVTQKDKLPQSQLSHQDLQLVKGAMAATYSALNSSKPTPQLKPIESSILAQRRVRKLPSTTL
T1 sequence (Q16620 whole entry): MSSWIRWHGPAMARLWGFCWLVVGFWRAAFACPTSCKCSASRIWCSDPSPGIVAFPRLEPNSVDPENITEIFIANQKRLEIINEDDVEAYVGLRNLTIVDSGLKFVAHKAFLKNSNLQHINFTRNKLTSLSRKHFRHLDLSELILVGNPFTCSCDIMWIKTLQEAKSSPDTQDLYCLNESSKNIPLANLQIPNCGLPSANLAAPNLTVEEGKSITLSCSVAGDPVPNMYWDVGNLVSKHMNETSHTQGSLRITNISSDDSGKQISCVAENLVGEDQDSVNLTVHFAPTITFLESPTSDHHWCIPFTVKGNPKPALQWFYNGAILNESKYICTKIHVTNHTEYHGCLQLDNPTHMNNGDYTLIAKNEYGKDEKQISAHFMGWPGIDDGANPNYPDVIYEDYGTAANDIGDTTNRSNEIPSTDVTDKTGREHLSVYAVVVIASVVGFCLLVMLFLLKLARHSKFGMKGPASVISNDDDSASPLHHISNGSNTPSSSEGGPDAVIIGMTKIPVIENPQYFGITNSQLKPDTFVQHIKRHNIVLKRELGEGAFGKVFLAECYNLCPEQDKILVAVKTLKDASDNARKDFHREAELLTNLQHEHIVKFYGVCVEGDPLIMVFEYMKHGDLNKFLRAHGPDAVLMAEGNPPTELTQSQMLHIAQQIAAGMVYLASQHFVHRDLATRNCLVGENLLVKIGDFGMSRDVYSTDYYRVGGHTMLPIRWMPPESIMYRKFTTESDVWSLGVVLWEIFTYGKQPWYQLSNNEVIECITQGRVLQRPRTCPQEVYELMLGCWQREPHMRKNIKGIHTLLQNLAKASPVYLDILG
T9 sequence (P12931 whole entry): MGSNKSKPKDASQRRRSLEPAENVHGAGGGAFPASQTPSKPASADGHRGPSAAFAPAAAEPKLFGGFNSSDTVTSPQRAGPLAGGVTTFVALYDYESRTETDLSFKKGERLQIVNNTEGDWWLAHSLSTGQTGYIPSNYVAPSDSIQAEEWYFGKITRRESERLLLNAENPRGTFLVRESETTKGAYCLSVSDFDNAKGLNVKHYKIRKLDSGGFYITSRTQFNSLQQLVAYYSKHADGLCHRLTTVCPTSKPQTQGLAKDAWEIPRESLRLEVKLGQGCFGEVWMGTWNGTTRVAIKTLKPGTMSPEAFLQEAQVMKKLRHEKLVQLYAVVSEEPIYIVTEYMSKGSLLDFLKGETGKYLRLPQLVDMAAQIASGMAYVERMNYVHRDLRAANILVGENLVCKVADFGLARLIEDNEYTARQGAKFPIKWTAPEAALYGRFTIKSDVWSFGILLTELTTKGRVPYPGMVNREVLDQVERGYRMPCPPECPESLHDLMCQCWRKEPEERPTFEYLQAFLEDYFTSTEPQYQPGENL
T2 sequence (Q16566 whole entry): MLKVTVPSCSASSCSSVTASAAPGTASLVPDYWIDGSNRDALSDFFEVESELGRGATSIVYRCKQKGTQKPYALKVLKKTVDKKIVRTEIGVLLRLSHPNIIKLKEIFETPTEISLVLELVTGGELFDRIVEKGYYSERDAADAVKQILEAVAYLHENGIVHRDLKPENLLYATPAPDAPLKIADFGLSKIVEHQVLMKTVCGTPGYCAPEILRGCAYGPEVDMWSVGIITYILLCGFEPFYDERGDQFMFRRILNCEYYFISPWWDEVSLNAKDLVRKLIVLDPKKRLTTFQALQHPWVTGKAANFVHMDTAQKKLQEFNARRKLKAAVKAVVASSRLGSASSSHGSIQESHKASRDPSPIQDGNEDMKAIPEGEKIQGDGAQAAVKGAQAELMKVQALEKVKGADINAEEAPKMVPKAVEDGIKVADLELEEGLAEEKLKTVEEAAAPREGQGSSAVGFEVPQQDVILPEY
T4 sequence (P31749 whole entry): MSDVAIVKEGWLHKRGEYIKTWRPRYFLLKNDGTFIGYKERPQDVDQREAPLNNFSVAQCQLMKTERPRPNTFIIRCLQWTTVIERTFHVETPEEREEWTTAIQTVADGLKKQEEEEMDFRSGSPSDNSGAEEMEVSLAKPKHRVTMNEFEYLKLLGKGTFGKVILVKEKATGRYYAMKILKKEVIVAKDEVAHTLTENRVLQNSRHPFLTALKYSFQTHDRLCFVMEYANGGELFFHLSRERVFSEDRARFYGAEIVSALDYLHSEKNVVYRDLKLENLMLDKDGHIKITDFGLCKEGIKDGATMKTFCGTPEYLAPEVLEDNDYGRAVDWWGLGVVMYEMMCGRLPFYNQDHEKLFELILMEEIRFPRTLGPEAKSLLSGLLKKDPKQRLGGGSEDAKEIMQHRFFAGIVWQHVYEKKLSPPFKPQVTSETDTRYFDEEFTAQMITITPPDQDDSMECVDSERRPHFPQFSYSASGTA

## CC[C@@H](N)CNc1ccnc(-c2cc(-c3cnn(C)c3)ccc2O)n1 [CRT0066101]
[1]
  inhibition at 1 µM: 15%
[2]
  inhibition at 1 µM: -9%
[3]
  inhibition at 1 µM: 53%
[4]
  inhibition at 1 µM: 10%
[5]
  inhibition at 1 µM: 80%
[6]
  inhibition at 1 µM: 26%
[7]
  inhibition at 1 µM: 48%
[8]
  inhibition at 1 µM: -6%
[9]
  inhibition at 1 µM: -2%
[10]
  inhibition at 1 µM: 12%
[11]
  inhibition at 1 µM: 6%
[12]
  inhibition at 1 µM: -9%
[13]
  inhibition at 1 µM: 22%
[14]
  inhibition at 1 µM: 13%
[15]
  inhibition at 1 µM: 17%
[16]
  inhibition at 1 µM: 28%
[17]
  inhibition at 1 µM: 3%
[18]
  inhibition at 1 µM: 19%
